pEC50: −log10 of the molar value.
Biological target: T1, human mGluR3 (hmGluR3) (Homo sapiens, UniProt Q14832)
T1 construct: expressed in transfected cells; host or cells: HEK-293 cells, transient co-transfection by electroporation
Assay: Human mGluR3 positive allosteric modulator evaluation using Ca++ functional assay
Assay type: cell-based
Details: hmGluR3 transiently over-expressed in HEK-293 cells; stimulated by EC50 glutamate concentration; intracellular Ca2+ (Fluo4AM, FLIPR Tetra)
Description: Compounds of the present invention were tested successively for their agonist and positive allosteric modulator activities on human mGluR3 (hmGluR3) transiently over-expressed in HEK-293 cells. Compounds exert agonist activity if they are able to activate hmGluR3 by themselves, i.e., in absence of the endogenous agonist glutamate; and they exert positive allosteric modulator activity if they increase the action of the endogenous agonist glutamate.
HEK-293 cells were maintained in Modified Eagle's Medium supplemented with 10% Foetal Calf Serum, 1% Penicillin/Streptomycin and 1% non-essential amino acids at 37° C./5% CO2.
Cells were co-transfected by electroporation with four DNA plasmids encoding hmGluR3, a chimeric G protein allowing redirection of the activation signal toward intracellular calcium pathway, and two glutamate transporters so as to decrease extracellular glutamate levels and avoid receptor desensitization (Brabet I et al., Neuropharmacology 37(8), 1043-51, 1998). After transfection, cells were seeded in 75 cm^2 culture flasks, and cultured for 24 h.
Receptor activity was detected by changes in intracellular calcium measured using the fluorescent Ca^2+ sensitive dye, Fluo4AM (Molecular Probes).
The day of the assay, medium was aspirated and replaced during 3 hrs by freshly prepared buffer B (HBSS 1×, Hepes 20 mM, MgSO4-7H2O 1 mM, Na2CO3 3.3 mM, CaCl2-2H2O 1.3 mM, 0.5% BSA, Probenecid 2.5 mM). Then, cells were loaded at 37° C./5% CO2 for 1.5 hrs with buffer B containing 1 μM Fluo4AM, 0.1 mg/mL Pluronic Acid, 7 μg/mL Glutamate Pyruvate Transaminase and 2 mM sodium pyruvate. Afterwards cells were washed with buffer B. Cells were then detached from the 75 cm^2 culture flasks with Accutase® (5 min incubation at 37° C.), centrifuged (5 min at 840 rpm), resuspended in buffer B and finally seeded at a density of 30,000 cells/well in black-walled clear-bottom 384-well plates. Addition of compounds on cells and intracellular Ca^2+ measurements (excitation 485 nm, emission 525 nm) were performed by the fluorescence microplate reader FLIPR Tetra (Molecular Devices).
Agonist and positive allosteric modulator activities of compounds were consecutively evaluated on the same cells plate. Agonist activity was first tested during 10 min with the addition of compound alone on the cells. Then, the cells were stimulated by an EC50 glutamate concentration and fluorescence was recorded for additional 3 min. EC50 glutamate concentration is the concentration giving 50% of the maximal glutamate response. Agonist and/or positive allosteric modulator activity(ies) were evaluated in comparison to basal signal or signal evoked by EC50 glutamate concentration alone, respectively.
For potency determination, a dose-response test was performed using 20 concentrations of each compound of the invention. Dose-response curves were fitted using the sigmoïdal dose-response (variable slope) analysis in XLfit Scientific Curve Fitting for Excel (IDBS). EC50 of agonist/EC50 of positive allosteric modulator activity(ies) were calculated. Dose-response experiments were all performed in duplicate, two times independently.

T1 sequence (Q14832 23-879): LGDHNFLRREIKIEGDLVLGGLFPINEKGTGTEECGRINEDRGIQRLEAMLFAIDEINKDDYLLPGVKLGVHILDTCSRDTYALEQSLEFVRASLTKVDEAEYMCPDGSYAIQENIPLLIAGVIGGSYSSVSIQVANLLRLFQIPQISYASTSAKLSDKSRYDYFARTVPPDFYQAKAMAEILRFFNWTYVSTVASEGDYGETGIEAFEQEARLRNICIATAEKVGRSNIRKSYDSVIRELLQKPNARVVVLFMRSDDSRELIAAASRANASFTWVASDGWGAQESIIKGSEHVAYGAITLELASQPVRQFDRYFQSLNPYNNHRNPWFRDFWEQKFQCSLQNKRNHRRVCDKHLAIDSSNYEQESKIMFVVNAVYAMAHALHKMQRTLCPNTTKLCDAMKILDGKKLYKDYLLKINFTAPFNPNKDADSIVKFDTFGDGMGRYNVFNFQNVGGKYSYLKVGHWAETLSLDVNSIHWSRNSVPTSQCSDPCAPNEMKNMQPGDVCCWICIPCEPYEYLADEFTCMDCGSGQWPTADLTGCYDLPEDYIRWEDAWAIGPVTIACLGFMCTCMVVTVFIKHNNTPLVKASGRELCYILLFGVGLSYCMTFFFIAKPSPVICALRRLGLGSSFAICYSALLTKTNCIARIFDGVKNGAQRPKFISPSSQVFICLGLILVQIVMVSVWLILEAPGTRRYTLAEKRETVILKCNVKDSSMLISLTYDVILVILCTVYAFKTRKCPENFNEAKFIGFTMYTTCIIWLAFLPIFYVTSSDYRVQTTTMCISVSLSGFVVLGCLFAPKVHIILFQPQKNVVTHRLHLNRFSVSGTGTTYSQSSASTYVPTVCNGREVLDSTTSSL

SMILES | pEC50
CN1C(=O)c2c(Cl)ccn2-c2cc(Br)ccc2C12CC2 [Example 6, 9-Bromo-3-chloro-5-methyl-spiro[benzo[f]pyrrolo[1,2-a][1,4]diazepine-6,1′-cyclopropan]-4(5H)-one] | < 6.00
CN1C(=O)c2cc(-c3nnco3)cn2-c2cc(Br)ccc2C12CC2 [Example 189] | < 6.00
Cc1nccnc1-c1ccc2c(c1)-n1cccc1C(=O)N(C)C21CC1 [Example 58, 5-Methyl-9-(3-methyl-pyrazin-2-yl)-5,6-spiro[benzo[f]pyrrolo[1,2-a][1,4]diazepine-6,1′-cyclopropan]-4(5H)-one] | < 6.00
Cc1ncccc1-c1ccc2c(c1)-n1cc(-c3ccncc3)cc1C(=O)N(C)C21CC1 [Example 145] | > 7.00
Cc1ncccc1-c1ccc2c(c1)-n1cc(-c3ccccc3Cl)cc1C(=O)N(C)C21CC1 [Example 147] | 6.00 to 7.00
CN1C(=O)c2cc(-c3ccccc3)cn2-c2cc(-c3ccncc3)ccc2C12CC2 [Example 102, 5-Methyl-2-phenyl-9-(pyridin-4-yl)-spiro[benzo[f]pyrrolo[1,2-a][1,4]diazepine-6,1′-cyclopropan]-4(5H)-one] | > 7.00
Cc1ncccc1-c1ccc2c(c1)-n1nccc1C(=O)N(C)C2 [Example 217, 5-Methyl-9-(2-methylpyridin-3-yl)-5,6-dihydro-4H-benzo[f]pyrazolo[1,5-a][1,4]diazepin-4-one] | < 6.00
Cc1ncccc1-c1ccc2c(c1)-n1cc(C(=O)C3CCCC3)cc1C(=O)N(C)C21CC1 [Example 194] | 6.00 to 7.00
Cc1ncccc1-c1ccc2c(c1)-n1cc(-c3cccc(F)c3)cc1C(=O)N(C)C21CC1 [Example 152] | > 7.00
CCc1cc2n(c1)-c1cc(-c3cccnc3C)ccc1C1(CC1)N(C)C2=O [Example 197] | > 7.00
Cc1ncccc1-c1ccc2c(c1)-n1cc(Cl)cc1C(=O)N(C)C21CC1 [Example 82, 9-(2-Methyl-pyridin-3-yl)-2-chloro-5-methyl-spiro[benzo[f]pyrrolo[1,2-a][1,4]diazepine-6,1′-cyclopropan]-4(5H)-one] | > 7.00
CN1C(=O)c2cccn2-c2cc(-c3ccc(Cl)nc3)ccc2C12CC2 [Example 54, 5-Methyl-9-(6-chloropyridin-3-yl)-spiro[benzo[f]pyrrolo[1,2-a][1,4]diazepine-6,1′-cyclopropan]-4(5H)-one] | > 7.00
Cc1cc(-c2ccc3c(c2)-n2cc(-c4ccccc4)cc2C(=O)N(C)C32CC2)ccn1 [Example 105, 5-Methyl-2-phenyl-9-(2-methyl-pyridin-4-yl)-spiro[benzo[f]pyrrolo[1,2-a][1,4]diazepine-6,1′-cyclopropan]-4(5H)-one] | 6.00 to 7.00
Cc1ncccc1-c1ccc2c(c1)-n1ccc(Cl)c1C(=O)N(C)C21CC1 [Example 84, 9-(2-Methyl-pyridin-3-yl)-3-chloro-5-methyl-spiro[benzo[f]pyrrolo[1,2-a][1,4]diazepine-6,1′-cyclopropan]-4(5H)-one] | 6.00 to 7.00
Cc1ncccc1-c1ccc2c(c1)-n1cc(-c3nccs3)cc1C(=O)N(C)C21CC1 [Example 157] | > 7.00
CC1c2ccc(-c3ccc(N(C)C)nc3)cc2-n2cccc2C(=O)N1C (stereo not drawn) [Example 219, 9-(6-Dimethylamino-pyridin-3-yl)-5,6-dimethyl-5,6-dihydro-benzo[f]pyrrolo[1,2-a][1,4]diazepin-4-one] | > 7.00
CN1C(=O)c2cc(-c3ccccc3)nn2-c2cc(-c3ccc(N)nc3)ccc2C12CC2 [Example 127, 9-(6-Amino-pyridin-3-yl)-5-methyl-2-phenyl-spiro[benzo[f]pyrazolo[1,5-a][1,4]diazepine-6,1′-cyclopropan]-4(5H)-one] | > 7.00
Cc1ncccc1-c1ccc2c(c1)-n1cc(N(C)C)cc1C(=O)N(C)C21CC1 [Example 154] | 6.00 to 7.00

SMILES | pEC50
CN1Cc2ccc(-c3ccc(N)nc3)cc2-n2cc(-c3ccccc3)cc2C1=O [Example 165, 9-(6-Amino-pyridin-3-yl)-5-methyl-2-phenyl-5,6-dihydro-benzo[f]pyrrolo[1,2-a][1,4]diazepin-4-one] | 6.00 to 7.00
CN1C(=O)c2cc(-c3ccccc3)cn2-c2cc(-c3cccnn3)ccc2C12CC2 [Example 109, 5-Methyl-2-phenyl-9-pyridazin-3-yl-spiro[benzo[f]pyrrolo[1,2-a][1,4]diazepine-6,1′-cyclopropan]-4(5H)-one] | 6.00 to 7.00
Cc1ncncc1-c1ccc2c(c1)-n1cccc1C(=O)N(C)C21CC1 [Example 59, 5-Methyl-9-(4-methyl-pyrimidin-5-yl)-spiro[benzo[f]pyrrolo[1,2-a][1,4]diazepine-6,1′-cyclopropan]-4(5H)-one] | < 6.00
CN(C)c1ncccc1-c1ccc2c(c1)-n1cc(-c3ccccc3)cc1C(=O)N(C)C21CC1 [Example 119, 5-Methyl-2-phenyl-9-(2-dimethylamino-pyridin-3-yl)-spiro[benzo[f]pyrrolo[1,2-a][1,4]diazepine-6,1′-cyclopropan]-4(5H)-one] | < 6.00
Cc1cc2n(c1)-c1cc(-c3ccc(C)nc3)ccc1C1(CC1)N(C)C2=O [Example 198] | > 7.00
CCc1ccc(-c2ccc3c(c2)-n2cc(-c4ccccc4)cc2C(=O)N(C)C32CC2)cn1 [Example 112, 5-methyl-2-phenyl-9-(6-ethylpyridin-3-yl)-spiro[benzo[f]pyrrolo[1,2-a][1,4]diazepine-6,1′-cyclopropan]-4(5H)-one] | > 7.00
CN1C(=O)c2cc(-c3ccccc3)nn2-c2cc(-c3ccc(Cl)cc3)ccc2C12CC2 [Example 135, 9-(4-Chloro-phenyl)-5-methyl-2-phenyl-spiro[benzo[f]pyrazolo[1,5-a][1,4]diazepine-6,1′-cyclopropan]-4(5H)-one] | < 6.00
Cc1ncccc1-c1ccc2c(c1)-n1cncc1C(=O)N(C)C2 [Example 215, 5-Methyl-9-(2-methylpyridin-3-yl)-5,6-dihydro-4H-benzo[f]imidazo[1,5-a][1,4]diazepin-4-one] | < 6.00
Cc1ncccc1-c1ccc2c(c1)-n1cc(C3CCCC3)cc1C(=O)N(C)C21CC1 [Example 156] | 6.00 to 7.00
CCc1ncccc1-c1ccc2c(c1)-n1cc(C)cc1C(=O)N(C)C21CC1 [Example 199] | > 7.00
CN(C)c1ccc2c(c1)-n1cc(-c3ccccc3)cc1C(=O)N(C)C21CC1 [Example 115, 9-Dimethylamino-5-methyl-2-phenyl-spiro[benzo[f]pyrrolo[1,2-a][1,4]diazepine-6,1′-cyclopropan]-4(5H)-one] | < 6.00
CCc1ncccc1-c1ccc2c(c1)-n1cc(CO)cc1C(=O)N(C)C21CC1 [Example 203] | 6.00 to 7.00
Cc1ncccc1-c1ccc2c(c1)-n1cc(CC3CCCC3)cc1C(=O)N(C)C21CC1 [Example 196] | 6.00 to 7.00
CCc1ncccc1-c1ccc2c(c1)-n1cc(Br)cc1C(=O)N(C)C21CC1 [Example 19, 2-Bromo-5-methyl-9-(2-ethyl-pyridin-3-yl)-spiro[benzo[f]pyrrolo[1,2-a][1,4]diazepine-6,1′-cyclopropan]-4(5H)-one] | 6.00 to 7.00
CN1C(=O)c2cc(-c3ccccc3)cn2-c2cc(-c3cccnc3)ccc2C12CC2 [Example 93, 5-Methyl-2-phenyl-9-pyridin-3-yl-spiro[benzo[f]pyrrolo[1,2-a][1,4]diazepine-6,1′-cyclopropan]-4(5H)-one] | > 7.00
Cc1ncccc1-c1ccc2c(c1)-n1cc(Br)cc1C(=O)N(C)C21CC1 [Example 17, 2-Bromo-5-methyl-9-(2-methyl-pyridin-3-yl)-spiro[benzo[f]pyrrolo[1,2-a][1,4]diazepine-6,1′-cyclopropan]-4(5H)-one] | 6.00 to 7.00
CN1C(=O)c2cccn2-c2cc(-c3ccc(N4CCOCC4)nc3)ccc2C12CC2 [Example 42, 5-Methyl-9-(6-morpholin-4-yl-pyridin-3-yl)-spiro[benzo[f]pyrrolo[1,2-a][1,4]diazepine-6,1′-cyclopropan]-4(5H)-one] | 6.00 to 7.00
Cc1ccc(-c2ccc3c(c2)-n2cc(-c4nccs4)cc2C(=O)N(C)C32CC2)cn1 [Example 158] | > 7.00

Source: US11008323B2, “Substituted tricyclic 1,4-benzodiazepinone derivatives as allosteric modulators of group II metabotropic glutamate receptors” (Domain Therapeutics, priority 2015, dated 2021)
